Measurements as given in US20150105252A1, “SUBSTITUTED PYRAZOLES AS HERBICIDES” (E I DU PONT DE NEMOURS AND COMPANY, priority 2013, published 2015).

Key:
pigweed [1] = experiment: Test A preemergence; type: in vivo, Amaranthus retroflexus; conditions: 0 to 100 scale
How it was run: (§1)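 Greenhouse test in loam soil/sand blend; compounds formulated in non-phytotoxic solvent with surfactant, applied as preemergence directed soil spray or postemergence to plants 2–10 cm tall at one- to two-leaf stage. Injury rated visually versus untreated controls after approximately 10 days on a 0 (no effect) to 100 (complete control) scale.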

sedge, umbrella = experiment: Test C flooded paddy test; type: in vivo, Cyperus difformis; conditions: Flood
Source text: (§2) At time of treatment, test pots were flooded to 3 cm above the soil surface, treated by application of test compounds directly to the paddy water, and then maintained at that water depth for the duration of the test. Treated plants and controls were maintained in a greenhouse for 13 to 15 days, after which time all species were compared to controls and visually evaluated. […] A dash (-) response means no test result.

crabgrass, large [2] = experiment: Test A postemergence; type: in vivo, Digitaria sanguinalis
How it was run: as §1

ducksalad = experiment: Test C flooded paddy test; type: in vivo, Heteranthera limosa; conditions: Flood
Source text: as §2

rice = experiment: Test C flooded paddy test; type: in vivo, Oryza sativa; conditions: Flood
How it was run: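 Visual injury ratings against untreated controls, taken 13 to 15 days after compound was added to paddy water standing 3 cm above the soil.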

pigweed [3] = experiment: Test A postemergence; type: in vivo, Amaranthus retroflexus
How it was run: as §1

foxtail, giant [4] = experiment: Test A preemergence; type: in vivo, Setaria faberii; conditions: 0 to 100 scale
How it was run: as §1

foxtail, giant [5] = experiment: Test A postemergence; type: in vivo, Setaria faberii
How it was run: as §1

barnyardgrass [6] = experiment: Test C flooded paddy test; type: in vivo, Echinochloa crus-galli; conditions: Flood
Source text: as §2

morningglory [7] = experiment: Test A postemergence; type: in vivo, Ipomoea spp.
How it was run: as §1

morningglory [8] = experiment: Test A preemergence; type: in vivo, Ipomoea spp.; conditions: 0 to 100 scale
How it was run: as §1

barnyardgrass [9] = experiment: Test A postemergence; type: in vivo, Echinochloa crus-galli; conditions: Postemergence
How it was run: as §1

wheat [10] = experiment: Test A postemergence; type: in vivo, Triticum aestivum
How it was run: as §1

wheat [11] = experiment: Test A preemergence; type: in vivo, Triticum aestivum; conditions: 0 to 100 scale
How it was run: as §1

barnyardgrass [12] = experiment: Test A preemergence; type: in vivo, Echinochloa crus-galli; conditions: 0 to 100 scale
How it was run: as §1

corn [13] = experiment: Test A preemergence; type: in vivo, Zea mays; conditions: 0 to 100 scale
How it was run: as §1

velvetleaf [14] = experiment: Test A preemergence; type: in vivo, Abutilon theophrasti; conditions: 0 to 100 scale
How it was run: as §1

velvetleaf [15] = experiment: Test A postemergence; type: in vivo, Abutilon theophrasti
How it was run: as §1

crabgrass, large [16] = experiment: Test A preemergence; type: in vivo, Digitaria sanguinalis; conditions: 0 to 100 scale
How it was run: as §1

corn [17] = experiment: Test A postemergence; type: in vivo, Zea mays
How it was run: as §1

[18] = Preemergence, 1000 g ai/ha, 0 no effect, 100 complete control
[19] = 31 g ai/ha, scale 0 to 100 (0 no effect, 100 complete control)
[20] = 62 g ai/ha, scale 0 to 100 (0 no effect, 100 complete control)
[21] = Postemergence, 1000 g ai/ha, visual rating after approx. 10 days, 0 to 100 scale (0 no effect, 100 complete control)
[22] = Preemergence, 500 g ai/ha, 0 no effect, 100 complete control
[23] = preemergence, 125 g ai/ha, visual injury, approx. 10 days
[24] = Postemergence, 500 g ai/ha, visual rating after approx. 10 days, 0 to 100 scale (0 no effect, 100 complete control)
[25] = postemergence, 125 g ai/ha, about 10 days, visual rating on 0 to 100 scale (0 no effect, 100 complete control)

**Q.** How did the “Pigweed plant response rating” value (pigweed [1]; [18]) turn out when `CCCNC(=O)c1cc(CCC)n(Cc2cccc(OC(F)(F)F)c2)n1` [Compound 35] was run?
**A.** 90

**Q.** And the “Plant response rating, Sedge, Umbrella” value (sedge, umbrella; [19])?
**A.** 20

**Q.** And the “Plant response rating, Sedge, Umbrella” value (sedge, umbrella; [20])?
**A.** 30

**Q.** And the “Plant response rating, Sedge, Umbrella” value (sedge, umbrella; 125 g ai/ha, scale 0 to 100)?
**A.** 50

**Q.** What about the “Plant response rating, Sedge, Umbrella” value (sedge, umbrella; 250 g ai/ha, scale 0 to 100) of the same compound?
**A.** 80

**Q.** And the “Crabgrass, Large plant response rating” value (crabgrass, large [2]; [21])?
**A.** 70

**Q.** What about the “Plant response rating, Ducksalad” value (ducksalad; [19]) of the same compound?
**A.** 0

**Q.** And the “Plant response rating, Ducksalad” value (ducksalad; [20])?
**A.** 20

**Q.** And the “Plant response rating, Ducksalad” value (ducksalad; 125 g ai/ha, scale 0 to 100)?
**A.** 20

**Q.** What about the “Plant response rating, Ducksalad” value (ducksalad; 250 g ai/ha, scale 0 to 100) of the same compound?
**A.** 60

**Q.** And the “Plant response rating, Rice” value (rice; [19])?
**A.** 0

**Q.** And the “Plant response rating, Rice” value (rice; [20])?
**A.** 0

**Q.** What about the “Plant response rating, Rice” value (rice; 125 g ai/ha, scale 0 to 100) of the same compound?
**A.** 0

**Q.** What about the “Plant response rating, Rice” value (rice; 250 g ai/ha, scale 0 to 100) of the same compound?
**A.** 0

**Q.** What about the “Pigweed plant response rating” value (pigweed [3]; [21]) of the same compound?
**A.** 90

**Q.** And the “Foxtail, Giant plant response rating” value (foxtail, giant [4]; [18])?
**A.** 100

**Q.** What about the “Foxtail, Giant plant response rating” value (foxtail, giant [5]; [21]) of the same compound?
**A.** 40

**Q.** And the “Plant response rating, Barnyardgrass” value (barnyardgrass [6]; [19])?
**A.** 0

**Q.** What about the “Plant response rating, Barnyardgrass” value (barnyardgrass [6]; [20]) of the same compound?
**A.** 0

**Q.** And the “Plant response rating, Barnyardgrass” value (barnyardgrass [6]; 125 g ai/ha, scale 0 to 100)?
**A.** 10

**Q.** And the “Plant response rating, Barnyardgrass” value (barnyardgrass [6]; 250 g ai/ha, scale 0 to 100)?
**A.** 10

**Q.** What about the “Morningglory plant response rating” value (morningglory [7]; [21]) of the same compound?
**A.** 100

**Q.** And the “Morningglory plant response rating” value (morningglory [8]; [18])?
**A.** 50

**Q.** What about the “Barnyardgrass plant response rating” value (barnyardgrass [9]; 1000 g ai/ha, visual rating after approx. 10 days, 0 to 100 scale (0 no effect, 100 complete control)) of the same compound?
**A.** 30

**Q.** What about the “Wheat plant response rating” value (wheat [10]; [21]) of the same compound?
**A.** 20

**Q.** And the “Wheat plant response rating” value (wheat [11]; [18])?
**A.** 0

**Q.** And the “Barnyardgrass plant response rating” value (barnyardgrass [12]; [18])?
**A.** 70

**Q.** What about the “Corn plant response rating” value (corn [13]; [18]) of the same compound?
**A.** 0

**Q.** What about the “Velvetleaf plant response rating” value (velvetleaf [14]; [18]) of the same compound?
**A.** 50

**Q.** And the “Velvetleaf plant response rating” value (velvetleaf [15]; [21])?
**A.** 100

**Q.** And the “Crabgrass, Large plant response rating” value (crabgrass, large [16]; [18])?
**A.** 100

**Q.** And the “Corn plant response rating” value (corn [17]; [21])?
**A.** 20

**Q.** `Cc1cc(C(=O)NCC(F)(F)F)nn1Cc1cccc(OC(F)(F)F)c1` [Compound 5] was tested. Which “Pigweed plant response rating” value (pigweed [1]; [22]) did it give?
**A.** 100

**Q.** And the “Pigweed plant response rating” value (pigweed [1]; [23])?
**A.** 10

**Q.** And the “Plant response rating, Sedge, Umbrella” value (sedge, umbrella; [20])?
**A.** 50

**Q.** And the “Plant response rating, Sedge, Umbrella” value (sedge, umbrella; 250 g ai/ha, scale 0 to 100)?
**A.** 75

**Q.** And the “Crabgrass, Large plant response rating” value (crabgrass, large [2]; [24])?
**A.** 70

**Q.** What about the “Crabgrass, Large plant response rating” value (crabgrass, large [2]; [25]) of the same compound?
**A.** 10

**Q.** What about the “Plant response rating, Ducksalad” value (ducksalad; [20]) of the same compound?
**A.** 0

**Q.** What about the “Plant response rating, Ducksalad” value (ducksalad; 250 g ai/ha, scale 0 to 100) of the same compound?
**A.** 60

**Q.** And the “Plant response rating, Rice” value (rice; [20])?
**A.** 0

**Q.** What about the “Plant response rating, Rice” value (rice; 250 g ai/ha, scale 0 to 100) of the same compound?
**A.** 0

**Q.** What about the “Pigweed plant response rating” value (pigweed [3]; [24]) of the same compound?
**A.** 90

**Q.** And the “Pigweed plant response rating” value (pigweed [3]; [25])?
**A.** 50

**Q.** And the “Foxtail, Giant plant response rating” value (foxtail, giant [4]; [22])?
**A.** 70

**Q.** And the “Foxtail, Giant plant response rating” value (foxtail, giant [4]; [23])?
**A.** 10

**Q.** And the “Foxtail, Giant plant response rating” value (foxtail, giant [5]; [24])?
**A.** 60

**Q.** What about the “Foxtail, Giant plant response rating” value (foxtail, giant [5]; [25]) of the same compound?
**A.** 10

**Q.** And the “Plant response rating, Barnyardgrass” value (barnyardgrass [6]; [20])?
**A.** 0

**Q.** And the “Plant response rating, Barnyardgrass” value (barnyardgrass [6]; 250 g ai/ha, scale 0 to 100)?
**A.** 0

**Q.** And the “Morningglory plant response rating” value (morningglory [7]; [24])?
**A.** 100

**Q.** And the “Morningglory plant response rating” value (morningglory [7]; [25])?
**A.** 40

**Q.** What about the “Morningglory plant response rating” value (morningglory [8]; [22]) of the same compound?
**A.** 40

**Q.** And the “Morningglory plant response rating” value (morningglory [8]; [23])?
**A.** 0

**Q.** And the “Barnyardgrass plant response rating” value (barnyardgrass [9]; 125 g ai/ha, 0 to 100 scale, 0 no effect, 100 complete control)?
**A.** 10

**Q.** What about the “Barnyardgrass plant response rating” value (barnyardgrass [9]; 500 g ai/ha, visual rating after approx. 10 days, 0 to 100 scale (0 no effect, 100 complete control)) of the same compound?
**A.** 40

**Q.** And the “Wheat plant response rating” value (wheat [10]; [24])?
**A.** 10

**Q.** And the “Wheat plant response rating” value (wheat [10]; [25])?
**A.** 0

**Q.** What about the “Wheat plant response rating” value (wheat [11]; [23]) of the same compound?
**A.** 0

**Q.** What about the “Barnyardgrass plant response rating” value (barnyardgrass [12]; [22]) of the same compound?
**A.** 60

**Q.** And the “Barnyardgrass plant response rating” value (barnyardgrass [12]; [23])?
**A.** 0

**Q.** What about the “Corn plant response rating” value (corn [13]; [22]) of the same compound?
**A.** 0

**Q.** What about the “Corn plant response rating” value (corn [13]; [23]) of the same compound?
**A.** 0

**Q.** What about the “Velvetleaf plant response rating” value (velvetleaf [14]; [22]) of the same compound?
**A.** 20

**Q.** What about the “Velvetleaf plant response rating” value (velvetleaf [14]; [23]) of the same compound?
**A.** 0

**Q.** What about the “Velvetleaf plant response rating” value (velvetleaf [15]; [24]) of the same compound?
**A.** 60

**Q.** What about the “Velvetleaf plant response rating” value (velvetleaf [15]; [25]) of the same compound?
**A.** 20

**Q.** What about the “Crabgrass, Large plant response rating” value (crabgrass, large [16]; [22]) of the same compound?
**A.** 100

**Q.** And the “Crabgrass, Large plant response rating” value (crabgrass, large [16]; [23])?
**A.** 20

**Q.** And the “Corn plant response rating” value (corn [17]; [24])?
**A.** 40

**Q.** And the “Corn plant response rating” value (corn [17]; [25])?
**A.** 10
